What was measured:
HIF-1 = test: Inhibition of HIF-1 mediated HRE transcription activity (pGL3-HRE-luciferase reporter); assay type: cell-based, human; conditions: for HRE transcription activity (%): HCT116, hypoxic condition 12 hours
Experimental: To investigate the inhibition of HIF-1 transcription activity by the compound of the present invention, pGL3-basic vector (Promega) using luciferase as a reporter was cloned in multi-cloning site so as for HRE (Hypoxia Responsive Element, 5′-ACGTG-3′) existing in human VEGF gene to be repeated 6 times, resulting in the construction of pGL3-HRE-luciferase vector.
The human rectal cancer cell line HCT116 was seeded in a 48-well cell culture vessel. On the next day, the cells were transfected with 25 ng of pGL3-HRE-luciferase vector and 2.5 ng of Renilla control vector by using Polyfect reagent. After culturing the cells for 24 hours, the medium was replaced, followed by further culture for 4 hours. Then, the cells were treated with the compound prepared in each example at the concentration of 10 μM respectively, followed by culture in hypoxic condition (oxygen 1%, nitrogen 94%, carbon dioxide 5%) for 12 hours. Lysate was obtained by using RIPA buffer, by which hypoxia-induced luciferase activity was measured by using dual-luciferase assay system (Promega). Hypoxia-induced luciferase activity after the treatment of the compound prepared in example 1 or the compound prepared in comparative example 1 was measured by the same manner as described above except that the compound was treated at the concentrations of 0, 1, 3, 5, 10, and 20 μM. HIF-1 inhibition activity of each compound prepared in example 1 and comparative example 1 respectively was compared and the results are shown in Table 2 and FIG. 2.

[1] = Mouse weight changes and symptoms, intraperitoneal administration (B16F10 angiogenesis experiment); assay type: in vivo; conditions: for Mouse weight changes (%): ip, Example 1 20 mg/kg/day, topotecan 2 mg/kg/2 day
Experimental: Particularly, the experimental group composed of 5 female mice (C57BL) at 6 weeks was transplanted with B16F10 melanoma cell line. After the cancer cells were grown, the mice were treated with the compound of formula 1 via intraperitoneal injection at the dose of […] for 5 days. Inhibition of angiogenesis and the tumor growth were observed. In the meantime, the control group was treated with the mixed solution comprising 10% DMAC, 10% cremophor and 80% buffer (pH 10) every day. The comparative group was treated with topotecan at the dose of 2 mg/kg once every other day. Weight changes and the newly generated blood vessels were measured and the results are shown in Table 7, Table 8, FIG. 7, and FIG. 8. The tumor volume shown in Table 8 was calculated by the mathematical formula 1 of experimental example 4 and the inhibition rate was calculated by the mathematical formula 2 of experimental example 4.

HIF-1α = HIF-1α expression in tumor tissue (tumor tissue immune response experiment, Caki-1 model); assay type: in vivo, mouse; conditions: Caki-1 tumor, optical microscope; FIG. 6
Experimental: In addition, to investigate whether or not the anticancer activity shown in experimental example 5 was attributed to the decrease of HIF-1α expression, tumor tissue immune response experiment was performed.

[2] = tested on: human rectal cancer cell line HCT116; test: In vivo anticancer activity, intravenous injection, HCT116 rectal cancer in nude mice; set-up: species or system mouse; conditions: Example 1 30 mg/kg/day, topotecan 2 mg/kg/day; for Tumor volume changes (mm^3): iv; for Inhibition rate (%) of tumor volume: vs control
Experimental: To evaluate the inhibition effect of the compound prepared in example 1 administered via intravenous injection on the growth of rectal cancer, in vivo anticancer activity in mouse was measured. Particularly, nude-mice were grouped for experimental and control groups (5 mice per group). Changes in body weight, tumor volume, and tumor weight were measured to evaluate in vivo anticancer activity.
Female nude mice at 6 weeks (BALB/c nu/nu, Charles River) were raised in a germ-free facility where temperature and humidity were maintained at proper levels during the whole experimental period. After anesthetizing each mouse, the human rectal cancer cell line HCT116 was transplanted in rectal tissues at the density of 4×10^7 cells/mouse, and then the opened rectum was sealed with surgical clips. After transplanting the rectal cancer cell line, the tumor volume was measured with calipers. When the tumor volume reached 54.5 mm^3, the compound of the present invention prepared in example 1 was treated thereto. Particularly, for the experimental group, the compound of example 1 was dissolved in the solvent composed of saline (80%), DMAC (10%), and tween 80 (10%), which is indicated as ‘solvent A’ hereinafter, at the concentration of 30 mg/kg. […] The control was treated with the solvent A only without the compound once a day via oral administration at the dose of 15 ml/kg. The comparative group was treated with the solvent A containing topotecan (2 mg/kg) via intravenous injection once a day at the dose of 15 ml/kg. The weight and the tumor volume were measured once a day on day 0, 2, 3, 4, 5, 6, and 8.
Tumor volume was calculated by the following mathematical formula 1. To investigate the toxicity according to the repeated intravenous administration of the compound of example 1, mouse weight changes were observed and presented in Table 3. Inhibition rate (%) in Table 4 was calculated by the following mathematical formula 2, which indicates the inhibition of tumor growth by the compound presented by %. Tumor Volume(mm^3)=(major axis length of tumor cells, mm)×(minor axis length of tumor cells, mm)^2×0.5 [Mathematical Formula 1] Inhibition Rate (%)=[(Tumor Volume of Control−Tumor Volume of Experimental Group)/(Tumor Volume of Control)]×100 [Mathematical Formula 2]

[3] = Mouse weight changes and symptoms, intraperitoneal administration (B16F10 metastasis experiment); assay type: in vivo; conditions: for Mouse weight changes (%): ip, Example 1 20 mg/kg/day, topotecan 2 mg/kg/2 day
Experimental: Particularly, the experimental group composed of 6 female mice (C57BL) at 6 weeks was transplanted with B16F10 melanoma cell line. After the cancer cells were grown, the mice were treated with the compound of formula 1 via intraperitoneal injection at the dose of […] every day for 12 days. Inhibition of angiogenesis and the tumor growth were observed. In the meantime, the control group was treated with purified water every day. The comparative group was treated with topotecan at the dose of 2 mg/kg once every other day. Weight changes and cancer metastasis were measured and the results are shown in Table 9, Table 10, and FIG. 10.

## COC(=O)c1cccc(NC(=O)/C=C/Oc2ccc(C34CC5CC(CC(C5)C3)C4)cc2)c1 [Example 1, (E)-3-[3-(4-Adamantan-1-yl-phenoxy)-acryloylamino]-benzoic acid methyl ester]
HIF-1; 1 μM
  HRE transcription activity (%): 57.7%
HIF-1; 3 μM
  HRE transcription activity (%): 32.1%
HIF-1; 5 μM
  HRE transcription activity (%): 25.4%
HIF-1; 10 μM
  HRE transcription activity (%): 23.0%
HIF-1; 20 μM
  HRE transcription activity (%): 19.8%
HIF-1; cancer cell line HCT116, hypoxia
  inhibition effect on HRE transcription activity compared with the compound of comparative example 1: at least three times higher inhibition effect
[1]; 20 mg/kg ip, C57BL mice
  body weight on the final day of observation (day 5) compared with control: not significantly reduced
[1]; 20 mg/kg ip, C57BL mice, 5 days
  symptoms during repeated intraperitoneal injection: no specific symptom was observed
[1]; day 0
  Mouse weight changes (%): 100.0 ± 0.0%
[1]; day 2
  Mouse weight changes (%): 102.6 ± 1.6%
[1]; day 5
  Mouse weight changes (%): 107.6 ± 3.9%
HIF-1α
  HIF-1α expression in tumor tissue: significantly reduced
[2]; day 0
  Tumor volume changes (mm^3): 0.0 ± 0.0 mm^3
[2]; day 2
  Tumor volume changes (mm^3): 19.4 ± 5.8 mm^3
  Inhibition rate (%) of tumor volume: 35.3%
[2]; day 4
  Tumor volume changes (mm^3): 50.6 ± 20.9 mm^3
  Inhibition rate (%) of tumor volume: 52.1%
[2]; day 6
  Tumor volume changes (mm^3): 114.3 ± 36.8 mm^3
  Inhibition rate (%) of tumor volume: 47.0%
[2]; day 8
  Tumor volume changes (mm^3): 176.8 ± 50.0 mm^3
  Inhibition rate (%) of tumor volume: 45.7%
[3]; 20 mg/kg ip, C57BL mice
  body weight on the final day of observation (day 12) compared with control: not significantly reduced
[3]; 20 mg/kg ip, C57BL mice, 12 days
  symptoms during repeated intraperitoneal injection: no specific symptom was observed
[3]; day 0
  Mouse weight changes (%): 100.0 ± 0.0%
[3]; day 2
  Mouse weight changes (%): 98.7 ± 3.4%
[3]; day 5
  Mouse weight changes (%): 101.2 ± 4.6%
[3]; day 7
  Mouse weight changes (%): 103.4 ± 3.8%
[3]; day 9
  Mouse weight changes (%): 107.6 ± 2.8%
[3]; day 12
  Mouse weight changes (%): 107.6 ± 3.3%

## CC[C@@]1(O)C(=O)OCc2c1cc1n(c2=O)Cc2cc3c(CN(C)C)c(O)ccc3nc2-1 [topotecan, reference compound]
[1]; day 0
  Mouse weight changes (%): 100.0 ± 0.0%
[1]; day 2
  Mouse weight changes (%): 101.2 ± 0.6%
[1]; day 5
  Mouse weight changes (%): 103.7 ± 1.4%
[2]; day 0
  Tumor volume changes (mm^3): 0.0 ± 0.0 mm^3
[2]; day 2
  Tumor volume changes (mm^3): 16.5 ± 3.9 mm^3
  Inhibition rate (%) of tumor volume: 44.9%
[2]; day 4
  Tumor volume changes (mm^3): 44.3 ± 10.1 mm^3
  Inhibition rate (%) of tumor volume: 58.1%
[2]; day 6
  Tumor volume changes (mm^3): 69.1 ± 13.2 mm^3
  Inhibition rate (%) of tumor volume: 67.9%
[2]; day 8
  Tumor volume changes (mm^3): 93.1 ± 22.3 mm^3
  Inhibition rate (%) of tumor volume: 71.4%
[3]; day 0
  Mouse weight changes (%): 100.0 ± 0.0%
[3]; day 2
  Mouse weight changes (%): 101.0 ± 2.9%
[3]; day 5
  Mouse weight changes (%): 103.5 ± 6.1%
[3]; day 7
  Mouse weight changes (%): 104.0 ± 4.6%
[3]; day 9
  Mouse weight changes (%): 104.3 ± 6.2%
[3]; day 12
  Mouse weight changes (%): 103.7 ± 5.5%

Source: US8940936B2, “Aryloxy phenoxy acrylic compound having HIF-1 inhibition activity, method for preparing same, and pharmaceutical composition containing same as an active ingredient” (Korea Research Institute of Bioscience and Biotechnology, priority 2010, dated 2015)
